# Source: patent US20260083714A1, “DOSING REGIMEN FOR TREATING PKU WITH A PIPERIDINE INHIBITOR OF SLC6A19 FUNCTION” (Jnana Therapeutics Inc., priority 2022, published 2026)
# Where two headings read alike, the source gives them in different places.
# How the values were obtained:
# SLC6A19 = target: T1, SLC6A19 (Homo sapiens, UniProt Q695T7); assay: Amino acid excretion over 24 h after a single dose of suspension in healthy volunteers; type: in vivo
# T1 construct: SCL6A19 is located in the proximal tubule of the kidney and is responsible for reabsorption of amino acids back into the blood; from tissue; host or cells: Kidney proximal tubule of healthy volunteers (in vivo, endogenous)
# T1 sequence (Q695T7 1-634): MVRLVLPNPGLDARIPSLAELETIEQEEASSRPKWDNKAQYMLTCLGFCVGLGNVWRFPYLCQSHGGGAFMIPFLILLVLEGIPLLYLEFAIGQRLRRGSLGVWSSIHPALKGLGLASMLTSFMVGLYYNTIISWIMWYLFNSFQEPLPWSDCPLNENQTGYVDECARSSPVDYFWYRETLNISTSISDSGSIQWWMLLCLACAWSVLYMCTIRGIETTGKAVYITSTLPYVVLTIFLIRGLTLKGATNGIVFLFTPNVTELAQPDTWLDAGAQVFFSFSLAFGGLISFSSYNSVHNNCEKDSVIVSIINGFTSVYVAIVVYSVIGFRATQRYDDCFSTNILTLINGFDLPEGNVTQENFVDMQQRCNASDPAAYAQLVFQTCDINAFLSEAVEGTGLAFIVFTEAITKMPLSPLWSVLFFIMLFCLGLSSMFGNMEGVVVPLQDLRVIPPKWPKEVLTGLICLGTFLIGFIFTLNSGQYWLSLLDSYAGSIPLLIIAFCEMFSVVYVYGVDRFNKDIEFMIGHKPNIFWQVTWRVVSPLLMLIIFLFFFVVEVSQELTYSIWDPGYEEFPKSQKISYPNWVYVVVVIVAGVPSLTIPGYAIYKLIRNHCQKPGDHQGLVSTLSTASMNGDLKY
# T1 sequence (Q9HBJ8 15-222 partner): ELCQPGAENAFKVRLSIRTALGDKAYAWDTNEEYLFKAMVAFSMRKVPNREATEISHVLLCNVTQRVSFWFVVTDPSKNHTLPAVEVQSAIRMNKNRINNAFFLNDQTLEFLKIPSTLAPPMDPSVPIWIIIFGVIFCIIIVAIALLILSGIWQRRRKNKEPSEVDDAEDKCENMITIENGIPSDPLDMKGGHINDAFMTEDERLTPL
# Procedure: FIG. 1 is a graph of the pharmacodynamic effect of Compound 1 in healthy volunteers showing changes in total phenylalanine or overall SLC6A19 amino acid substrates (Hartnup amino acids) excretion over 24 hours following administration of a single dose of the compound (10-170 mg) in the form of a suspension.
# A suspension formulation of varying doses of Compound 1 (10-170 mg) was administered to healthy volunteers. Changes in amino acid excretion over 24 h following a single dose were measured (FIG. 1). Up to a 14-fold increase in total Phe excretion (from 10 mg to 142 mg) and a 16-fold increase in Hartnup AA excretion (from 0.29 g to 4.8 g) were observed over 24 hr after dosing (Tables 13A and 13B).
# [1] = Plasma levels of Compound 1 over 72 h, suspension versus tablet, fasted or fed, in healthy volunteers; type: in vivo; conditions: human, oral, 100 mg, read-out: Plasma level, Mean; for concentration at 0.5 h: 0.5 h post-dose; for concentration at 1 h: 1 h post-dose; for concentration at 1.5 h: 1.5 h post-dose; for concentration at 2 h: 2 h post-dose; for concentration at 2.5 h: 2.5 h post-dose; for concentration at 3 h: 3 h post-dose; for concentration at 4 h: 4 h post-dose; for concentration at 6 h: 6 h post-dose; for concentration at 8 h: 8 h post-dose; for concentration at 10 h: 10 h post-dose; for concentration at 12 h: 12 h post-dose; for concentration at 24 h: 24 h post-dose; for concentration at 36 h: 36 h post-dose; for concentration at 48 h: 48 h post-dose; for concentration at 72 h: 72 h post-dose; for concentration at 0 h: 0 h post-dose
# Procedure: FIG. 4 is a graph of the pharmacokinetics of Compound 1 over 72 hours in healthy volunteers in fed or fasted states when administering 100 mg of the compound as a suspension formulation or a tablet.
# A suspension formulation (100 mg, fasted) and tablet formulation (100 mg, fasted or fed) of Compound 1 was administered to healthy volunteers. Plasma levels of Compound 1 over 72 was measured (FIG. 4). Post-dose plasma levels are recited in Table 16.
# [2] = single dose suspension, highest value of 10-170 mg
structure (smiles),measurement,setting,value
"NC(=O)N1CCC[C@@H](N(C(=O)NCc2ccc(OC(F)(F)F)cc2F)C2CC2)C1 [Cpd 1, (R)-3-(1-cyclopropyl-3-(2-fluoro-4-(trifluoromethoxy)benzyl)ureido) piperidine-1-carboxamide]","Excretion amounts over 24 h, Hartnup Amino Acids, Mean",SLC6A19; single dose 10 mg suspension,712.45 mg
same,"Excretion amounts over 24 h, Phenylalanine, Mean",SLC6A19; single dose 10 mg suspension,12.50 mg
same,"Excretion amounts over 24 h, Hartnup Amino Acids, Mean",SLC6A19; single dose 25 mg suspension,1213.02 mg
same,"Excretion amounts over 24 h, Phenylalanine, Mean",SLC6A19; single dose 25 mg suspension,21.02 mg
same,"Excretion amounts over 24 h, Hartnup Amino Acids, Mean",SLC6A19; single dose 50 mg suspension,2560.22 mg
same,"Excretion amounts over 24 h, Phenylalanine, Mean",SLC6A19; single dose 50 mg suspension,51.53 mg
same,"Excretion amounts over 24 h, Hartnup Amino Acids, Mean",SLC6A19; single dose 100 mg suspension,3281.75 mg
same,"Excretion amounts over 24 h, Phenylalanine, Mean",SLC6A19; single dose 100 mg suspension,77.84 mg
same,"Excretion amounts over 24 h, Hartnup Amino Acids, Mean",SLC6A19; single dose 170 mg suspension,4823.71 mg
same,"Excretion amounts over 24 h, Phenylalanine, Mean",SLC6A19; single dose 170 mg suspension,141.61 mg
same,increase in total Phe excretion over 24 hr after dosing,"SLC6A19; single dose 10-170 mg suspension, versus 10 mg baseline",≤ 14 fold
same,increase in Hartnup AA excretion over 24 hr after dosing,"SLC6A19; single dose 10-170 mg suspension, versus 0.29 g baseline",≤ 16 fold
same,Hartnup AA excretion over 24 hr after dosing,SLC6A19; [2],4.8 g
same,total Phe excretion over 24 hr after dosing,SLC6A19; [2],142 mg
same,concentration at 0.5 h,"[1]; 100 mg suspension, fasted",1840 ng/mL
same,concentration at 1 h,"[1]; 100 mg suspension, fasted",2310 ng/mL
same,concentration at 1.5 h,"[1]; 100 mg suspension, fasted",2440 ng/mL
same,concentration at 2 h,"[1]; 100 mg suspension, fasted",2630 ng/mL
same,concentration at 2.5 h,"[1]; 100 mg suspension, fasted",2620 ng/mL
same,concentration at 3 h,"[1]; 100 mg suspension, fasted",2720 ng/mL
same,concentration at 4 h,"[1]; 100 mg suspension, fasted",2750 ng/mL
same,concentration at 6 h,"[1]; 100 mg suspension, fasted",2090 ng/mL
same,concentration at 8 h,"[1]; 100 mg suspension, fasted",1580 ng/mL
same,concentration at 10 h,"[1]; 100 mg suspension, fasted",1110 ng/mL
same,concentration at 12 h,"[1]; 100 mg suspension, fasted",778 ng/mL
same,concentration at 24 h,"[1]; 100 mg suspension, fasted",216 ng/mL
same,concentration at 36 h,"[1]; 100 mg suspension, fasted",50 ng/mL
same,concentration at 48 h,"[1]; 100 mg suspension, fasted",24.2 ng/mL
same,concentration at 72 h,"[1]; 100 mg suspension, fasted",12.8 ng/mL
same,concentration at 0 h,"[1]; 100 mg tablet, fasted",12.1 ng/mL
same,concentration at 0.5 h,"[1]; 100 mg tablet, fasted",1600 ng/mL
same,concentration at 1 h,"[1]; 100 mg tablet, fasted",2110 ng/mL
same,concentration at 1.5 h,"[1]; 100 mg tablet, fasted",2400 ng/mL
same,concentration at 2 h,"[1]; 100 mg tablet, fasted",2550 ng/mL
same,concentration at 2.5 h,"[1]; 100 mg tablet, fasted",2530 ng/mL
same,concentration at 3 h,"[1]; 100 mg tablet, fasted",2580 ng/mL
same,concentration at 4 h,"[1]; 100 mg tablet, fasted",2580 ng/mL
same,concentration at 6 h,"[1]; 100 mg tablet, fasted",2070 ng/mL
same,concentration at 8 h,"[1]; 100 mg tablet, fasted",1650 ng/mL
same,concentration at 10 h,"[1]; 100 mg tablet, fasted",1250 ng/mL
same,concentration at 12 h,"[1]; 100 mg tablet, fasted",891 ng/mL
same,concentration at 24 h,"[1]; 100 mg tablet, fasted",324 ng/mL
same,concentration at 36 h,"[1]; 100 mg tablet, fasted",59.5 ng/mL
same,concentration at 48 h,"[1]; 100 mg tablet, fasted",29 ng/mL
same,concentration at 72 h,"[1]; 100 mg tablet, fasted",11.4 ng/mL
same,concentration at 0 h,"[1]; 100 mg tablet, fed",12.1 ng/mL
same,concentration at 0.5 h,"[1]; 100 mg tablet, fed",1660 ng/mL
same,concentration at 1 h,"[1]; 100 mg tablet, fed",2220 ng/mL
same,concentration at 1.5 h,"[1]; 100 mg tablet, fed",2320 ng/mL
same,concentration at 2 h,"[1]; 100 mg tablet, fed",2850 ng/mL
same,concentration at 2.5 h,"[1]; 100 mg tablet, fed",2910 ng/mL
same,concentration at 3 h,"[1]; 100 mg tablet, fed",2950 ng/mL
same,concentration at 4 h,"[1]; 100 mg tablet, fed",2860 ng/mL
same,concentration at 6 h,"[1]; 100 mg tablet, fed",2260 ng/mL
same,concentration at 8 h,"[1]; 100 mg tablet, fed",1740 ng/mL
same,concentration at 10 h,"[1]; 100 mg tablet, fed",1270 ng/mL
same,concentration at 12 h,"[1]; 100 mg tablet, fed",963 ng/mL
same,concentration at 24 h,"[1]; 100 mg tablet, fed",329 ng/mL
same,concentration at 36 h,"[1]; 100 mg tablet, fed",90.1 ng/mL
same,concentration at 48 h,"[1]; 100 mg tablet, fed",45 ng/mL
same,concentration at 72 h,"[1]; 100 mg tablet, fed",15 ng/mL
